Measurements taken from ChEMBL document CHEMBL3085689, “Targeting the hydrophobic region of Hsp90's ATP binding pocket with novel 1,3,5-triazines” (Bioorg Med Chem Lett, 2013).
pIC50, pKi: −log10 of the molar value. Activity calls are given as the source filed them. The calls are words filed in the database; no cut-off is given here.

Key:
NCI-H1975 = assay: Antiproliferative activity against gefitinib-resistant human NCI-H1975 cells after 72 hrs by MTS assay; assay type: functional, cell-based
[1] = target: Heat shock protein HSP 90-beta (Homo sapiens) (UniProt P08238); assay: Inhibition of HSP90 in human H1975 cells assessed as reduction of Her2 level after 24 hrs by densitometric analysis; assay type: cell-based
Sequence of Heat shock protein HSP 90-beta (Homo sapiens) (P08238 whole entry, the tested form may be a part): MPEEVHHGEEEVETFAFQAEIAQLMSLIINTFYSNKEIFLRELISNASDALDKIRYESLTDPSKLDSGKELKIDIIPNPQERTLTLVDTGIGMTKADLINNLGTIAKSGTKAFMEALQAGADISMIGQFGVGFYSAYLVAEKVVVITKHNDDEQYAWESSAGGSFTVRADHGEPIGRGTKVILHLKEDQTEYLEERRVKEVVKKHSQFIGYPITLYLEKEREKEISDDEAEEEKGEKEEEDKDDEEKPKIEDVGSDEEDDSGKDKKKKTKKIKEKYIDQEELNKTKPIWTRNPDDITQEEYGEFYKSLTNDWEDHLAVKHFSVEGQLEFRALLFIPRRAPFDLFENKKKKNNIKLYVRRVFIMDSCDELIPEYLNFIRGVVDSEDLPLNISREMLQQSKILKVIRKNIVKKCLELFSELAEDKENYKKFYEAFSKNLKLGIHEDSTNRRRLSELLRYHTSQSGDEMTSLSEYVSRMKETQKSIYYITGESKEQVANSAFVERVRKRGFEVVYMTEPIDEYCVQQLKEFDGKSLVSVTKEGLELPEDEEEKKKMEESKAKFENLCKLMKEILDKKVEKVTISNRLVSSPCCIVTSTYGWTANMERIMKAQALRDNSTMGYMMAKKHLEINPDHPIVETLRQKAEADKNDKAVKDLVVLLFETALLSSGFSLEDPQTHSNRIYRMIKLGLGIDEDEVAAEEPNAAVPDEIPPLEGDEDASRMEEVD

[2] = target: Heat shock protein HSP 90-beta (Homo sapiens) (UniProt P08238); assay: Inhibition of HSP90 in human H1975 cells assessed as reduction of Met level after 24 hrs by densitometric analysis; assay type: cell-based
[3] = target: Heat shock protein HSP 90-beta (Homo sapiens) (UniProt P08238); assay: Inhibition of HSP90 in human H1975 cells assessed as upregulation of Hsp70 after 24 hrs by densitometric analysis; assay type: cell-based
[4] = target: Heat shock protein HSP 90-beta (Homo sapiens) (UniProt P08238); assay: Inhibition of HSP90 in human H1975 cells assessed as reduction of Akt level at 100 uM after 24 hrs by Western blotting analysis; assay type: cell-based
[5] = target: Heat shock protein HSP 90-beta (Homo sapiens) (UniProt P08238); assay: Inhibition of HSP90 in human H1975 cells assessed as reduction of Her2 level at 50 to 100 uM after 24 hrs by densitometric analysis; assay type: cell-based
[6] = target: Heat shock protein HSP 90-beta (Homo sapiens) (UniProt P08238); assay: Inhibition of HSP90 in human H1975 cells assessed as reduction of Met level at 100 uM after 24 hrs by Western blotting analysis; assay type: cell-based
[7] = target: Heat shock protein HSP 90-alpha (Homo sapiens, UniProt P07900); assay: Inhibition of recombinant human Hsp90alpha ATP-binding pocket of N-terminal domain after 4 hrs by fluorescence polarization assay
[8] = target: Heat shock protein HSP 90-beta (Homo sapiens) (UniProt P08238); assay: Inhibition of HSP90 in human H1975 cells assessed as reduction of Her2 level at 100 uM after 24 hrs by Western blotting analysis; assay type: cell-based
[9] = target: Heat shock protein HSP 90-beta (Homo sapiens) (UniProt P08238); assay: Inhibition of HSP90 in human H1975 cells assessed as reduction of Akt level after 24 hrs by densitometric analysis; assay type: cell-based
[10] = target: Heat shock protein HSP 90-beta (Homo sapiens) (UniProt P08238); assay: Inhibition of HSP90 in human H1975 cells assessed as upregulation of Hsp70 at 100 uM after 24 hrs by Western blotting analysis; assay type: cell-based

| Activity [6] | Activity [8] | Activity [10] | SMILES | Activity (NCI-H1975) | also measured |
| --- | --- | --- | --- | --- | --- |
| – | – | – | Nc1nc(Cl)nc(Nc2ccc(O)cc2)n1 | Dose-dependent effect | – |
| Active | Active | Active | Cc1cccc(C)c1Oc1nc(N)nc(Cl)n1 | Dose-dependent effect | Activity [1]: Dose-dependent effect; Activity [2]: Dose-dependent effect; Activity [3]: Dose-dependent effect; Activity [4]: Active; Activity [5]: Active; pIC50 [7]: 5.30; pKi [7]: 5.55; Activity [9]: Dose-dependent effect |
| Active | Active | Active | COc1ccc(Oc2nc(N)nc(Cl)n2)cc1 | Dose-dependent effect | Activity [4]: Active |
| – | – | – | Nc1nc(Cl)nc(Nc2ccccc2Cl)n1 | Dose-dependent effect | – |
| – | – | – | COc1cc(COc2nc(N)nc(Cl)n2)cc(OC)c1OC | Dose-dependent effect | – |
| – | – | – | Nc1nc(Cl)nc(Nc2ccccc2)n1 | Dose-dependent effect | – |
| inactive | inactive | inactive | COc1ccc(COc2nc(N)nc(Cl)n2)cc1 | Dose-dependent effect | – |
